Laboratory results taken from ChEMBL document CHEMBL5223177, “Pyrazole Ureas as Low Dose, CNS Penetrant Glucosylceramide Synthase Inhibitors for the Treatment of Parkinson's Disease” (ACS Med Chem Lett, 2023).
Converted amounts (≈) assume the structure as drawn.

How the values were obtained:
[1] = Lipophilicity, logD of compound by HPLC method; type: physicochemical
[2] = Clearance in rat; type: ADME; details: in vivo
[3] = Intrinsic clearance in rat at 5 to 10 mg/kg, po or 0.05 to 2 mg/kg, iv; type: ADME, organism-based; details: in vivo, dose 5-10 mg/kg
[4] = target: T1, Ceramide glucosyltransferase (Mus musculus, UniProt O88693); assay: Inhibition of GCS in mouse fibroblast; type: cell-based
T1 sequence (O88693 whole entry): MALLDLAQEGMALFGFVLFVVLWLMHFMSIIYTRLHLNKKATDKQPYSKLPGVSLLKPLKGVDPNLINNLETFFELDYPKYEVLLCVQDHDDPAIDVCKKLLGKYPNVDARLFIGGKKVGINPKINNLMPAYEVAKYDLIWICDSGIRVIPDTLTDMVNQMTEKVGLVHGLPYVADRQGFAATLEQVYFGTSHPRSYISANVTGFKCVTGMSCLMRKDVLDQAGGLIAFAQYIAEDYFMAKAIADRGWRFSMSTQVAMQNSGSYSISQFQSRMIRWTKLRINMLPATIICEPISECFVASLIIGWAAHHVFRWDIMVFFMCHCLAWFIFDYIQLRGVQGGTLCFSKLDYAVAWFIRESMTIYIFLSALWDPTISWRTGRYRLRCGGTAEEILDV

[5] = target: Voltage-gated inwardly rectifying potassium channel KCNH2 (Homo sapiens, UniProt Q12809); assay: Inhibition of human ERG; type: toxicity
[6] = target: T2, Muscarinic acetylcholine receptor M5 (Homo sapiens, UniProt P08912); assay: Inhibition of human muscarinic M5 receptor
T2 sequence (P08912 whole entry): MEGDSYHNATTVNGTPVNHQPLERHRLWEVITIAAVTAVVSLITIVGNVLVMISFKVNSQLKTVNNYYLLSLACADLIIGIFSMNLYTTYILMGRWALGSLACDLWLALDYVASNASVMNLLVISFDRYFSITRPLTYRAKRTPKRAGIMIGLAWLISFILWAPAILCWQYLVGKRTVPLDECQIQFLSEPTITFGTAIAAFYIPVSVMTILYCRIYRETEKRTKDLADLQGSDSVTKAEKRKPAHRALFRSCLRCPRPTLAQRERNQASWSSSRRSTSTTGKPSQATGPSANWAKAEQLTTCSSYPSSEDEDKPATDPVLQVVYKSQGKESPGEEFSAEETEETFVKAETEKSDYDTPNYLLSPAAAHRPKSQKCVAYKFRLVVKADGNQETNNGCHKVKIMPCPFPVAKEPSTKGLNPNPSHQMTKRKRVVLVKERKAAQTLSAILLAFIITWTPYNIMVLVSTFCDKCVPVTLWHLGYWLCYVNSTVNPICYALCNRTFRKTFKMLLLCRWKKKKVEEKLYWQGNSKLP

[7] = Intrinsic clearance in rat; type: ADME
[8] = Unbound volume of distribution at steady state in dog; type: ADME, Canis lupus familiaris; details: in vivo
[9] = Solubility of compound at pH 2 by HPLC method; type: physicochemical; details: buffer
Homo sapiens [10] = species on record: Homo sapiens; assay: Inhibition of CYP2C9 (unknown origin) relative to control
[11] = Half life in rat; type: ADME; details: in vivo
Homo sapiens [12] = species on record: Homo sapiens; assay: Selectivity ratio of IC50 for human 5HT3A to IC50 for GCS (unknown origin)
Cytochrome P450 2C9 = Cytochrome P450 2C9 (Homo sapiens, UniProt P11712); assay: Inhibition of CYP2C9 (unknown origin); type: ADME
[13] = Solubility of compound at pH 7 by HPLC method; type: physicochemical; details: buffer
[14] = Unbound volume of distribution at steady state in rat; type: ADME; details: in vivo
[15] = Intrinsic clearance in dog; type: ADME, Canis lupus familiaris
Cytochrome P450 3A4 = Cytochrome P450 3A4 (Homo sapiens, UniProt P08684); assay: Inhibition of CYP3A4 (unknown origin); type: ADME
[16] = Unbound fraction in rat plasma; type: ADME, cell-free
[17] = Clearance in dog; type: ADME, Canis lupus familiaris; details: in vivo
[18] = Bioavailability in rat at 5 to 10 mg/kg, po or 0.05 to 2 mg/kg, iv; type: ADME, organism-based; details: in vivo, dose 5-10 mg/kg
[19] = Bioavailability in rat; type: ADME, organism-based; details: in vivo
[20] = Unbound fraction in dog plasma; type: ADME, cell-free, Canis lupus familiaris
rat P-gp = assay: Substrate activity at rat P-gp assessed as efflux ratio at 1 uM; type: ADME; details: not told
[21] = Unbound brain-to-plasma concentration ratio in rat at 5 mg/kg, po after 2 hrs; type: ADME, organism-based; details: read-out: K(p,uu,brain)
[22] = Half life in dog; type: ADME, Canis lupus familiaris; details: in vivo
Cytochrome P450 2D6 = Cytochrome P450 2D6 (Homo sapiens, UniProt P10635); assay: Inhibition of CYP2D6 (unknown origin); type: ADME
mouse BCRP (ABCG2) [23] = target: T3, mouse BCRP (ABCG2) (Mus musculus, UniProt Q7TMS5); assay: Substrate activity at mouse BCRP assessed as apparent permeability at 1 uM; type: ADME; details: not told
T3 sequence (Q7TMS5 whole entry): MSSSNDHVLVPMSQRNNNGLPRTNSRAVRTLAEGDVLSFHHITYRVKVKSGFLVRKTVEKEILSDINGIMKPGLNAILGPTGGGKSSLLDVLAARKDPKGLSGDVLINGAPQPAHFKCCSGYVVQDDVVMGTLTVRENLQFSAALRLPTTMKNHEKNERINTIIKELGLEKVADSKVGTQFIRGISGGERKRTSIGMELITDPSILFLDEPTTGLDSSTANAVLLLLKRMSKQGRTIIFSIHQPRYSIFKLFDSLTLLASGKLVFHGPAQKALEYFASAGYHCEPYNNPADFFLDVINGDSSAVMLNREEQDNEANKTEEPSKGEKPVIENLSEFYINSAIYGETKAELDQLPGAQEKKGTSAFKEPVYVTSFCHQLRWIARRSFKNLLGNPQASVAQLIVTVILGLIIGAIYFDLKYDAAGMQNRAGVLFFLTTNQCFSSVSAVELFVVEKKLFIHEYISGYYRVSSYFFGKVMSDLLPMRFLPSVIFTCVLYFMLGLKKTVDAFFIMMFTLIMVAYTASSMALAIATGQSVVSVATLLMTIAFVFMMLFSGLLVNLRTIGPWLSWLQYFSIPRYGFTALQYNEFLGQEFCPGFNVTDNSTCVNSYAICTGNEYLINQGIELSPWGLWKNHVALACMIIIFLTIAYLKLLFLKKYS

[24] = Mean residence time in rat at 5 to 10 mg/kg, po or 0.05 to 2 mg/kg, iv; type: ADME, organism-based; details: in vivo, dose 5-10 mg/kg
mouse BCRP (ABCG2) [25] = target: T3, mouse BCRP (ABCG2); assay: Substrate activity at mouse BCRP assessed as efflux ratio at 1 uM; type: ADME; details: not told

Cytochrome P450 3A4, sequence (P08684 whole entry): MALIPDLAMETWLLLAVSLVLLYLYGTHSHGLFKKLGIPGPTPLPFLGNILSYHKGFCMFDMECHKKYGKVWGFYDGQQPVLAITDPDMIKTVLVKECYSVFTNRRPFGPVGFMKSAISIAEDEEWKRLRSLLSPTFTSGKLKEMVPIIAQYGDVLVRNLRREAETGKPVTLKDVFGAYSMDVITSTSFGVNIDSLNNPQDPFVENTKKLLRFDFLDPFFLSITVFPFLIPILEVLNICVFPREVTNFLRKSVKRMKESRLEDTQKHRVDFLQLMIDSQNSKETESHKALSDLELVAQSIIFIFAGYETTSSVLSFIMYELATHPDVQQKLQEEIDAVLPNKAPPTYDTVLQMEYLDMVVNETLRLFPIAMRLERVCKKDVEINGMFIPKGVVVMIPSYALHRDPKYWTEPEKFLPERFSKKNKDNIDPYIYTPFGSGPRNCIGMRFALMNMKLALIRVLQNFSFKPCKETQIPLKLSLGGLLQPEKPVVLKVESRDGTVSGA
Cytochrome P450 2C9, sequence (P11712 whole entry): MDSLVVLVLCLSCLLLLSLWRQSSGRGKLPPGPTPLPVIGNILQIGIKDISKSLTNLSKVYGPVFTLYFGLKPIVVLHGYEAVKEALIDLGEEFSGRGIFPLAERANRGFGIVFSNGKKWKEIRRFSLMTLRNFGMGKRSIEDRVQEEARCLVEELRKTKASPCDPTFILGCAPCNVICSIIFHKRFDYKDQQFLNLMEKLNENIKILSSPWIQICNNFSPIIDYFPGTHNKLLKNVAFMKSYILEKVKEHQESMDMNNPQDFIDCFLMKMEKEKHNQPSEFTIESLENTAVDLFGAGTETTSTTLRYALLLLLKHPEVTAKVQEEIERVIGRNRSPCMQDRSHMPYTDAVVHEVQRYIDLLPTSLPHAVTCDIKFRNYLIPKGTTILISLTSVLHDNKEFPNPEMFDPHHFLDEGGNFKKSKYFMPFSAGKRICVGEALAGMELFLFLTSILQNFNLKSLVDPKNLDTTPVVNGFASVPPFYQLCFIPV
Voltage-gated inwardly rectifying potassium channel KCNH2, sequence (Q12809 whole entry): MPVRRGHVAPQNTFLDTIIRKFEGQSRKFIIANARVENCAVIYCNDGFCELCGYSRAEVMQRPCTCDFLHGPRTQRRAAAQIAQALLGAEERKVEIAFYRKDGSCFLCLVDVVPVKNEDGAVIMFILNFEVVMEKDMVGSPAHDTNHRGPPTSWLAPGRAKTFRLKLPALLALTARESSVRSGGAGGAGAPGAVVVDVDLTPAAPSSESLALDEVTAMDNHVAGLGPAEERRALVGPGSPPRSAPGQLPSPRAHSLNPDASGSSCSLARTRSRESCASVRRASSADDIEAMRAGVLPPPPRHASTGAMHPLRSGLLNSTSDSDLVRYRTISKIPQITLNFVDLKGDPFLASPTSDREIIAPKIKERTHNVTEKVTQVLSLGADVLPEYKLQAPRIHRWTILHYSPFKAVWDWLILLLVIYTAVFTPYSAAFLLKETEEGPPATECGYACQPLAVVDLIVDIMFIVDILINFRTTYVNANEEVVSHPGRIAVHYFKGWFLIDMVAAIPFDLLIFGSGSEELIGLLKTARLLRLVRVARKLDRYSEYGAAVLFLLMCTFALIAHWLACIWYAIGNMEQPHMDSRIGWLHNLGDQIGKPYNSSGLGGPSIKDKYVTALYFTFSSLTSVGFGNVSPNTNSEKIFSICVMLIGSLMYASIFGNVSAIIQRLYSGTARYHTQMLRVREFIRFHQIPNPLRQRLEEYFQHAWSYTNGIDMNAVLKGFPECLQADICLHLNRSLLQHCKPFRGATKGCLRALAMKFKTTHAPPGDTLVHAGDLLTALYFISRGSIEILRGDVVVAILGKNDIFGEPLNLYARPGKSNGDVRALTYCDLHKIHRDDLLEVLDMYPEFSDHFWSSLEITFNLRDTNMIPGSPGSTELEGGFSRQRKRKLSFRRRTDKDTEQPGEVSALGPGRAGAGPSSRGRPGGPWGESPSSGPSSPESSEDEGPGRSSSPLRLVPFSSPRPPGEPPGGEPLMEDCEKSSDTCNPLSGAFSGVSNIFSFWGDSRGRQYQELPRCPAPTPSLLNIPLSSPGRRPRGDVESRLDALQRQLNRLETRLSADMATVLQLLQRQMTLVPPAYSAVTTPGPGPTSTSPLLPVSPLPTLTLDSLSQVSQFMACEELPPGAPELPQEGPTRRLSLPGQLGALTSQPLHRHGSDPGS
Cytochrome P450 2D6, sequence (P10635 whole entry): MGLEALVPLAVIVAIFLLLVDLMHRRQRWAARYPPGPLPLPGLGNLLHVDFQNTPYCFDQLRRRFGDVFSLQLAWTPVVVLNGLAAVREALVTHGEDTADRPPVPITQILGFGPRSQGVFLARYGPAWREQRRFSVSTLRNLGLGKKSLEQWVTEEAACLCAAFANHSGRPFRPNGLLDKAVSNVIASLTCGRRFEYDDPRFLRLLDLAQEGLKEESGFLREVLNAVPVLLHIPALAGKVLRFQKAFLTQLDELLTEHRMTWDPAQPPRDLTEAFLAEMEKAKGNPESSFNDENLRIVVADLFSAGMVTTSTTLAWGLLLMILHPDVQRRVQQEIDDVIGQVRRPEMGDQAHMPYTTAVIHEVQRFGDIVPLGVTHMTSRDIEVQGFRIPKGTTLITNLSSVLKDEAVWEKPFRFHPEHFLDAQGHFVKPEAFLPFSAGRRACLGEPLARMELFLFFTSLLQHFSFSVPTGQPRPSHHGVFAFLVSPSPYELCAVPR

## O=C(N1CCN2CCC1CC2)n1nc(-c2ccc(F)cc2)c2c1COCC2
[1]
  logD: 2.2
[2]
  clearance: 8.5 mL/min/kg
[3]
  CL: 90 mL/min/kg
[4]
  IC50: 0.021 µM
[5]
  IC50: 2 µM
[6]
  IC50: 10.2 µM
[7]
  CLint scaled: 90 mL/min/kg
[8]
  fVdss: 21 L/kg
[9]
  solubility: 167 µM (≈ 61.9 µg/mL)
Homo sapiens [10]
  Emax: 17%
[11]
  half-life: 2.8 h
Homo sapiens [12]
  Ratio IC50: 64
Cytochrome P450 2C9
  IC50: > 50 µM
[13]
  solubility: 170 µM (≈ 63 µg/mL)
[14]
  fVdss: 17 L/kg
[15]
  CLint scaled: 6870 mL/min/kg
Cytochrome P450 3A4
  IC50: > 50 µM
[16]
  fraction unbound: 0.11
[17]
  clearance: 30 mL/min/kg
[18]
  bioavailability: 73%
[19]
  bioavailability: 73%
[20]
  fraction unbound: 0.3
Rat P-gp
  efflux ratio at 1 µM: 3.4
[21]
  Kp uu at 2 h: 0.4
[22]
  half-life: 2.4 h
Cytochrome P450 2D6
  IC50: > 50 µM
Mouse BCRP (ABCG2) [23]
  Papp at 1 µM: 31 ×10⁻⁶ cm/s
[24]
  MRT: 3.5 h
Mouse BCRP (ABCG2) [25]
  efflux ratio at 1 µM: 1.4

## Cl.O=C(N1CCN2CCC1CC2)n1nc(-n2cc(C(F)(F)F)cn2)c2c1COCC2
[1]
  logD: 2.5
[2]
  clearance: 6.1 mL/min/kg
[3]
  CL: 55 mL/min/kg
[4]
  IC50: 0.017 µM
[5]
  IC50: 4.1 µM
[6]
  IC50: 10.2 µM
[7]
  CLint scaled: 55 mL/min/kg
[8]
  fVdss: 49 L/kg
[9]
  solubility: 174 µM
Homo sapiens [10]
  Emax: 26%
[11]
  half-life: 3.4 h
Homo sapiens [12]
  Ratio IC50: 1100
Cytochrome P450 2C9
  IC50: > 50 µM
[13]
  solubility: 168 µM
[14]
  fVdss: 16 L/kg
[15]
  CLint scaled: 75 mL/min/kg
Cytochrome P450 3A4
  IC50: > 50 µM
[16]
  fraction unbound: 0.08
[17]
  clearance: 12 mL/min/kg
[18]
  bioavailability: 95%
[19]
  bioavailability: 95%
[20]
  fraction unbound: 0.27
Rat P-gp
  efflux ratio at 1 µM: 4.6
[21]
  Kp uu at 2 h: 1.3
[22]
  half-life: 8.2 h
Cytochrome P450 2D6
  IC50: > 50 µM
Mouse BCRP (ABCG2) [23]
  Papp at 1 µM: 31 ×10⁻⁶ cm/s
[24]
  MRT: 5.3 h
Mouse BCRP (ABCG2) [25]
  efflux ratio at 1 µM: 1.3
